Results as given in patent US11666549B2, “Regulation of cancer using natural compounds and/or diet” (UNIVERSITY OF FLORIDA RESEARCH FOUNDATION, INC., priority 2013, dated 2023).
“Also recorded” adds a separate entry of the source.

Legend:
hNSC = hNSC viability, MTT assay after neurosphere culture; format: cell-based, human; conditions: 14 days culture, daily treatment; EGCG 8 μM, Curcumin 0.5 μM, SFN 2.5 μM or all three
Experimental: FIG. 33B) hNSC were plated at 20K cells per 100 ul of medium and cultured in the neurosphere assay for 14 days. […] After 14 days in culture, MTT assay was performed to measure cell viability.

[1] = test system: Human breast cancer cells (ZR751); experiment: NP on breast cancer cell viability, MTT assay; format: cell-based; conditions: daily EGCG 8 μM, Curcumin 0.5 μM, SFN 2.5 μM or combination; vs controls
Experimental: Human breast cancer cells (ZR751) were treated daily with EGCG (8 μM), Curcumin (0.5 μM) or SFN (2.5 μM) individually or in combination (NP). Once the control cultures became confluent, cell viability was measured using MTT assay.
Human breast cancer cells [ZR751] grown in culture and treated daily with physiological concentrations of either EGCG (8 μM), Curcumin (0.5 μM) or SFN (2.5 μM) or used in combination (NP).

[2] = test system: Primary human GBM stem cell lines; experiment: NP in vitro fold expansion of hGB cells; format: cell-based; conditions: EGCG 8 μM, Curcumin 0.5 μM, sulforaphane 2.5 μM or all three; daily for 4 out of 5 days; vs control
Experimental: Cells were passed after 5-7 days and cell counts were performed. […] Micrographs show cultures after 4 days of exposure to the different treatments.
Patient derived hGB cells were cultured under defined conditions using established protocols that allow the tumor cells to retain both their phenotypic and genotypic properties in vitro. hGB cell lines were treated with the following NPs:

[3] = test system: Primary human GB stem cell lines; experiment: Daily fold expansion, NP and TMZ in vitro; format: cell-based; conditions: in combination with TMZ; EGCG 8 μM, Curcumin 0.5 μM, SFN 2.5 μM or all three
Experimental: FIG. 11: Daily fold expansion—Effect of NP and TMZ in vitro. Primary human GB stem cell lines were treated daily for 4 out of 5 days in culture TMZ alone or in combination with EGCG (8 μM), Curcumin (0.5 μM), sulforaphane (2.5 μM) or a combination of all three (NP). Cells were passed after 5-7 days and cell counts performed. […] The stars (*) are compared to control, # to TMZ alone and $ to the different combinations of TMZ with each of the individual natural products. 1 symbol, p<0.05, 3 symbols, p<0.001, 1-way ANOVA.
Standard of care [SOC] for many solid tissue cancers involves the use of chemotherapy, which for many advanced or high grade tumors provides marginal benefit. Patient derived hGB cells were grown in culture and treated daily with the conventional drug temozolomide [TMZ, 20 μM] only or in combination with the following NPs:
[4] a combination of all three NPs
After 5-7 days in culture cells were counted and the mean daily fold expansion calculated.

[4] = test system: Lung carcinoma cells (A549); experiment: NP on lung cancer cells in vitro, cell count; format: cell-based, human; conditions: daily EGCG 8 μM, Curcumin 0.5 μM, sulforaphane 2.5 μM or all three; counted when controls confluent
Experimental: Once the control cultures became confluent a cell count was performed.

[5] = test system: Patient derived hGB cells; experiment: Serial passage of hGB cells, growth and CSC expansion rate (Kll); format: cell-based, human; conditions: 5 passages; EGCG 8 μM, curcumin 0.5 μM, SFN 2.5 μM or combination; vs control
Experimental: FIG. 10A) Patient derived hGB cells were serially passed in culture for 5 passages under a variety of treatment conditions. […] Human GB cells were cultured in the neurosphere assay over 5 passages during which CSC expansion rate was evaluated.
In a second experiment [FIG. 10], patient derived hGB cells were serially passed in culture while being treated with the following NPs:
[4] A combination of all three NPs

[6] = test system: Colorectal adenocarcinoma cells (HT-29); experiment: NP on colon cancer cells in vitro, cell count; format: cell-based, human; conditions: daily EGCG 8 μM, Curcumin 0.5 μM, sulforaphane 2.5 μM or all three; counted when controls confluent
Experimental: Once the control cultures became confluent, a cell count was performed.

[7] = Body weight, TMZ vs. mKD/NP; conditions: after 4 days of treatment, TMZ 20 mg/kg
Experimental: FIG. 6: Body weight—TMZ vs. mKD/NP. Toxicity/safety of mKD/NP was compared to standard of care (TMZ, 20 mg/kg) by monitoring body weight after 4 days of treatment.
The first line chemotherapy for high grade gliomas is temozolomide [TMZ], which is an oral alkylating agent that damages DNA and triggers cell death. While TMZ is an effective chemotherapy agent it also has significant toxicity. Using the same subcutaneous model as noted in example 2, at the time of tumor presentation animals were randomly assigned to one of three groups: [1] control diet, no treatment; [2] control diet, SOC [TMZ, 20 mg/kg three times/week]; [3] mKD/NP diet.

[8] = test system: high-grade gliomas such as GB; conditions: GB patients; cited from earlier work
[9] = Non-tumor death, TMZ vs. mKD/NP; format: in vivo, mouse; conditions: TMZ 20 mg/kg three times/week; mKD/NP diet; vs untreated controls
From the text: FIG. 5: Non-Tumor Death—TMZ vs. mKD/NP. Mortality rate unrelated to tumor was monitored during the course of treatments.

Compound | cell viability (MTT) (hNSC) | cell viability (MTT) [1] | mean daily fold expansion of GB cells [2] | mean daily fold expansion, natural product added to TMZ treatment [3] | cell number [4] | CSC self-renewing symmetric division rate (Kll) [5] | cell number [6] | body weight [7] | body weight ([7]; listed as SOC) | negative side effects [8] | mortality from non-tumor related causes [9]
COc1cc(/C=C/C(=O)CC(=O)/C=C/c2ccc(O)c(OC)c2)ccc1O [Curcumin, curcumin] | did not show any effect on the viability of hNSCs | no statistically significant effect on reducing the number of breast cancer cells; also recorded: none of the natural product showed statistically significant effect compared to controls | significant reduction in mean daily fold expansion | significant reduction in the mean daily fold expansion of hGB cells compared to control | do not show a statistically significant effect in reducing cell numbers | Only SFN or NP treated groups demonstrated significant decrease | significant reduction in cell number | – | – | – | –
C[S+]([O-])CCCCN=C=S (stereo not drawn) [SFN, sulforaphane] | did not show any effect on the viability of hNSCs | no statistically significant effect on reducing the number of breast cancer cells; also recorded: none of the natural product showed statistically significant effect compared to controls | significant reduction in mean daily fold expansion | enhanced this effect, with SFN demonstrating the greatest effect; also recorded: significant reduction in the mean daily fold expansion of hGB cells compared to control | – | significant decrease of CSCs self-renewing symmetric division rate compared to control | significant reduction in cell number | – | – | – | –
Cn1nnc2c(C(N)=O)ncn2c1=O [TMZ, temozolomide] | – | – | – | – | – | – | – | significant loss of body weight compared to control and mKD/NP | significantly reduced | nausea, vomiting and hematological toxicity | increase in mortality compared to the untreated controls
epigallocatechin-3-gallate [EGCG] | did not show any effect on the viability of hNSCs | no statistically significant effect on reducing the number of breast cancer cells; also recorded: none of the natural product showed statistically significant effect compared to controls | significant reduction in mean daily fold expansion | enhanced this effect; also recorded: significant reduction in the mean daily fold expansion of hGB cells compared to control | do not show a statistically significant effect in reducing cell numbers | Only SFN or NP treated groups demonstrated significant decrease | significant reduction in cell number | – | – | – | –
